Consider one compound from patent US10632324B2, “Method for the treatment of skin tissues” (9127-4910 Quebec Inc., priority 2017, dated 2020).

This assay has as its system transformation of 5-aminolevulinic acid to protoporphyrin IX (PpIX). The assay is described as follows: FluoDerm fluorescence after 940 nm photopreparation 24, 48, 72 h before 5-ALA, 4 subjects (Example 12). In kind it is in vivo, human. How it is done:
To obtain greater statistical power and investigate even longer term effects, the above study was repeated on other subjects. Below, the results or comparison between the D50 and CW protocols are shown for 4 subjects. Irradiation was performed in accordance with the pattern of FIG. 44, with measurements taken 24, 48 and 72 hours after pre-treatment with D50 and CW, instead of 8-14, 24-29 and 50-53.
More specifically, delineated treatment areas were drawn on each subject's back. These spaces had to be close enough together to enable simultaneous irradiation downstream in the experiment. Areas of each patient's back were then irradiated according to the predetermined photopreparation treatment parameter at the appropriate pre-5-ALA application and activation time. In this study, two light pulsing options were compared—pulsed versus continuous. Both options were set at 940 nm. The time set between the photopreparation treatment and the 5-ALA application was the other variable tested. […] Following the appropriately timed photopreparation treatment of the correct back skin area, 20% 5-aminolevulinic acid (Levulan Kerastick, Dusa, Wilmington, USA) was applied to the patient's back. After the topical application, an incubation time of 3 hours was set to optimize the transformation of the medication to protoporphyrin IX (PpIX). Finally, using the Fluoroderm device, the fluorescence of each subject's back areas was measured. The recorded data was statistically analyzed.
Besides the 20% 5-aminolevulinic acid (Levulan Kerastick, Dusa, Wilmington, USA) used as the photosensitizer and the FluoDerm (Dia-Medico, Denmark) to quantify the fluorescence of each patient's back, a prototype able to irradiate the back skin areas with pulsed (D50 pulsing condition) and continuous wavelength (CW) light at 940 nm was built. This machine was assembled at RoseLab Skin Optics Research Laboratory (Montreal, Canada). The D50-940 nm condition was made up of 940 nm light with a pulsing pattern consisting of a 50% duty cycle delivered in the repeating pattern (in μseconds where PD, PI, and PTI mean pulse duration, pulse interval, and pulse train interval, respectively) of: PD 500 on, PI 150 off, PD 500 on, PI 150 off, PD 500 on and PTI 1550 off (FIG. 3). The irradiance delivered for all conditions (D50 and CW) was 75 mW/cm^2 and the fluence delivered for all conditions was 67.5 J/cm^2 (940 nm LED treatment duration D50=30 min and CW=15 min).
The FluoDerm measured each tested condition. These measurements were then compared to the control (only 5-ALA without photopreparation). The means of these proportional changes were calculated. The final results were categorized by every photopreparation condition (72, 48 and 24 hours pre-treatment). A 95% confidence interval was calculated for each mean.
The data is analyzed and presented as X-fold changes (or differences) as compared to the just 5-ALA control below. Higher number show a higher effect of pre-treatment with IR radiation.

Turning to `NCC(=O)CCC(=O)O` [5-ALA, 5-aminolevulinic acid], the “X-fold change of fluorescence as compared to the just 5-ALA control, Mean” value came to 1.18 fold (24 hours pre-treatment, CW-940, 75 mW/cm2, 67.5 J/cm2); 1.27 fold (24 hours pre-treatment, D50-940, 75 mW/cm2, 67.5 J/cm2); 1.34 fold (48 hours pre-treatment, CW-940, 75 mW/cm2, 67.5 J/cm2); 1.08 fold (48 hours pre-treatment, D50-940, 75 mW/cm2, 67.5 J/cm2); 1.05 fold (72 hours pre-treatment, CW-940, 75 mW/cm2, 67.5 J/cm2); 0.94 fold (72 hours pre-treatment, D50-940, 75 mW/cm2, 67.5 J/cm2).
